Measured values: patent US10188613B2 (UNIVERSITY OF SOUTH FLORIDA, priority 1998, dated 2019)
Where a name gives a salt, the structure may show the parent alone.

Legend:
TS patients = conditions: Tourette's Syndrome patients; cited from earlier work
[1] = tested on: vagotomized, pithed and artificially respired rats; experiment: Pithed rat: plasma catecholamine responses, HPLC (Example 3); format: in vivo
Description: The aim of the study was to determine whether mecamylamine and its stereoisomers have any effect on pressor responses and increases in plasma catecholamines in response to sympathetic nerve stimulation.
In the vagotomized, pithed and artificially respired rats (with oxygen mixed with air), the cardiovascular responses to test compounds measured were mean arterial blood pressure and heart rate; and the catecholamine responses measured were plasma norepinephrine, epinephrine and dopamine. These variables were measured in rats at rest and after electrical stimulation of sympathetic outflow at 0.2 Hz, 0.8 Hz, and 2.2 Hz for a one-minute duration (50 V, 1 msec pulse), and before and after administration of vehicle or a drug. Catecholamine assays were performed by specific HPLC testing. […] Statistical analysis were applied as appropriate.
Plasma catecholamine (CA) levels—norepinephrine (NE), epinephrine (EPI), and dopamine (DA)—were measured by HPLC with an electrochemical detector following administration of doses of all forms of mecamylamine.

Sprague-Dawley rats [2] = experiment: Mecamylamine blockade of nicotine-induced seizures (Example 2); format: in vivo, rat; conditions: for nicotine-induced seizures (percentage of rats that seized): 0.1, 0.3, 1.0 mg/kg s.c. 15 min before nicotine 3.6 mg/kg s.c.; for duration and severity of seizure vs saline comparison group / seizure latency vs saline control: 0.3 and 1.0 mg/kg s.c.
[3] = tested on: Sprague-Dawley derived rats; experiment: Prevention of sensitized locomotor stimulant response to nicotine (Example 1); format: in vivo, rat; conditions: lower doses; nicotine test on day 9
[4] = tested on: vagotomized, pithed and artificially respired rats; experiment: Pithed rat: cardiovascular responses to sympathetic nerve stimulation (Example 3); format: in vivo; conditions: for stimulation-induced increases in MAP: 0.8 and 2.2 Hz stimulation, i.v. bolus; for increases in heart rate (δ HR) vs saline-treated rats: 2.2 Hz, highest dose (10 mg/kg i.v.)
[5] = biological target: hNET (norepinephrine transporter) (Homo sapiens, UniProt P23975); experiment: [125I]RTI-55 binding, HEK293-hNET membranes (Example 5); conditions: [125I]RTI-55 competition
human α3β4 receptors = biological target: T1, human α3β4 receptors (Homo sapiens, UniProt P30926+P32297); experiment: Two-electrode voltage clamp, Xenopus oocytes expressing α3β4 receptors (Example 4); format: cell-based
T1 construct: expressed in transfected cells; host or cells: Xenopus laevis oocytes, cRNA injection
T1 sequence (P32297 32-505): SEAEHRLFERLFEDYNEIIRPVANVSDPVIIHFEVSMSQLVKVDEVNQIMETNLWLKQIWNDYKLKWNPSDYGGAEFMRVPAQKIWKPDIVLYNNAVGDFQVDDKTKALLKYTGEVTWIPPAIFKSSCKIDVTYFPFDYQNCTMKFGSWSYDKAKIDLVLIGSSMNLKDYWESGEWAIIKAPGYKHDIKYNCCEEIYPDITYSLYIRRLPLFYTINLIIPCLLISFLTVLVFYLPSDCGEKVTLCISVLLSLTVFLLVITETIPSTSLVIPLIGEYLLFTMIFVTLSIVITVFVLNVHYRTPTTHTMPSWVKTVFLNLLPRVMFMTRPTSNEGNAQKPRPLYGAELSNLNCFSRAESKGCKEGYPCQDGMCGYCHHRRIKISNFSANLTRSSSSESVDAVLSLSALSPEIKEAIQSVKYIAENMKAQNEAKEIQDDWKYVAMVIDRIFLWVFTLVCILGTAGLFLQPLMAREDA
T1 sequence (P30926 22-498): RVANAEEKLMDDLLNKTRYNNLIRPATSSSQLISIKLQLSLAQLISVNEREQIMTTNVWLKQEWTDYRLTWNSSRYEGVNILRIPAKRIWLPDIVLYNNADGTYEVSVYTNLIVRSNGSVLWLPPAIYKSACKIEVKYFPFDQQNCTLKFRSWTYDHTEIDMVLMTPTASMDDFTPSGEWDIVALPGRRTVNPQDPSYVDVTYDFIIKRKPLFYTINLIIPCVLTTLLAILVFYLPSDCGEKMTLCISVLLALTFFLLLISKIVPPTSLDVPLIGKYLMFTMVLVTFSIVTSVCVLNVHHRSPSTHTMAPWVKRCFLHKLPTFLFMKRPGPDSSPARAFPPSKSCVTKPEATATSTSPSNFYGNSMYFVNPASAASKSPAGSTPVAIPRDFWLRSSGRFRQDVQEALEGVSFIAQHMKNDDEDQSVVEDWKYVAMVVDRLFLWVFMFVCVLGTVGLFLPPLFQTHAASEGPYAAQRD

nicotine receptors = experiment: Oocyte electrophysiology, recovery time course and agonist test, receptor subtype not specified (Example 4); format: cell-based, human
human α4β2 receptors = biological target: T2, human α4β2 receptors (Homo sapiens, UniProt P17787+P43681); experiment: Two-electrode voltage clamp, Xenopus oocytes expressing α4β2 receptors (Example 4); format: cell-based
T2 construct: expressed in transfected cells; host or cells: Xenopus laevis oocytes, cRNA injection
T2 sequence (P43681 29-627 limits assumed): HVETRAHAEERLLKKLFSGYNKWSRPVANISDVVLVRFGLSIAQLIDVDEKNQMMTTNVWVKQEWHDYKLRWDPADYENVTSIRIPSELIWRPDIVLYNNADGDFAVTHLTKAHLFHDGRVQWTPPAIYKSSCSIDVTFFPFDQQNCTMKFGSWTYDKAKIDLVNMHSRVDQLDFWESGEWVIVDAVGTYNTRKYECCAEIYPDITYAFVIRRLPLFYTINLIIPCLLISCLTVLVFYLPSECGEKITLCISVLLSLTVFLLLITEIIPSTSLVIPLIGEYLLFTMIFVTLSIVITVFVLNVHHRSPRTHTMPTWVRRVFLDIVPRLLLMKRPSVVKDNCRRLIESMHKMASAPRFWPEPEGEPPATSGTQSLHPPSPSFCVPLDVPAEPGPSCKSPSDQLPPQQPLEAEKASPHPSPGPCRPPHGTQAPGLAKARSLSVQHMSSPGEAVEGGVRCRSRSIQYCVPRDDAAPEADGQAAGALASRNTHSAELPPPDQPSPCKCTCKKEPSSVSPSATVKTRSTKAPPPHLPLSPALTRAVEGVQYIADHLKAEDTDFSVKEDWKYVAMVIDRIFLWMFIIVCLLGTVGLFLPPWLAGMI
T2 sequence (P17787 26-502): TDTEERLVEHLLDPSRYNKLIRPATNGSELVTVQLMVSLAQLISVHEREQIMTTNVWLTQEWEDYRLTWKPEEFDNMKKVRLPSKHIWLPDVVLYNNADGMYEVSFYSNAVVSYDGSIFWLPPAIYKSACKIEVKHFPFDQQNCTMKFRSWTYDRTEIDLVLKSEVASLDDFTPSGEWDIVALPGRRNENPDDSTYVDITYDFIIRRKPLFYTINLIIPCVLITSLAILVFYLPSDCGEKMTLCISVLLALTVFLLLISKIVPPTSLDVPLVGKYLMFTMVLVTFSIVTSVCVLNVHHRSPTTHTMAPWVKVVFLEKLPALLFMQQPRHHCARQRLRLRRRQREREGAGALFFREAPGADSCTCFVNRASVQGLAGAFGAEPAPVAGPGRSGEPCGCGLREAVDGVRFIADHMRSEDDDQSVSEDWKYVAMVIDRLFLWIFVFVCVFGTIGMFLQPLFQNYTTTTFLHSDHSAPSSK
Description: Voltage dependence and binding reversibility also were determined. Mature female Xenopus laevis African toads were used as a source of oocytes. After linearization and purification of cloned cDNAs, RNA transcripts were prepared in vitro using the appropriate mMessage mMachine® kit from Ambion Inc. (Austin Tex.). Harvested oocytes were treated with collagenase (Worthington Biochemical Corporation, Freehold N.J.) for two hr at room temperature in calcium-free solution. Subsequently stage 5 oocytes were isolated and injected with 50 nL each of a mixture of the appropriate subunit(s) cRNAs. Recordings were made about 1-7 days after cRNA injection.
For electrophysiology, oocyte recordings were made with an oocyte amplifier (e.g., Warner Instruments, Hamden, Conn., No. OC-725C) and RC-8 recording chamber. Oocytes were placed in the recording chamber with a total volume of about 0.6 ml and perfused at room temperature by frog Ringer's solution (115 mM NaCl, 2.5 mM KCl, 10 mM HEPES pH 7.3, and 1.8 mM CaCl2) containing 1 µM atropine to inhibit potential muscarinic responses. A Mariotte flask filled with Ringer's solution was used to maintain a constant hydrostatic pressure for drug delivery and washes. Drugs were diluted in perfusion solution and loaded into a 2 ml loop at the terminus of the perfusion line. A bypass of the drug-loading loop allowed bath solution to flow continuously while the drug loop was loaded. The drug application was synchronized with data acquisition by using a 2-way electronic valve. The rate of bath solution exchange and drug application was preferably about 6 ml/min. Current electrodes were filled with a solution containing 250 mMCsCl, 250 mM CsF and 100 mM EGTA and had resistances of 0.5-2 MΩ. […]
For experiments assessing voltage-dependence of drug inhibition, oocytes were initially voltage clamped at a holding potential of −40 mV or −90 mV and […] control application of ACh alone was delivered. […] Residual inhibition was evaluated with a subsequent application of ACh alone at the test potential, after a 5-min wash period.

human α7 receptors = biological target: T3, human α7 receptors (Homo sapiens, UniProt P36544); experiment: Two-electrode voltage clamp, Xenopus oocytes expressing α7 receptors (Example 4); format: cell-based
T3 construct: expressed in transfected cells; host or cells: Xenopus laevis oocytes, cRNA injection
T3 sequence (P36544 23-502): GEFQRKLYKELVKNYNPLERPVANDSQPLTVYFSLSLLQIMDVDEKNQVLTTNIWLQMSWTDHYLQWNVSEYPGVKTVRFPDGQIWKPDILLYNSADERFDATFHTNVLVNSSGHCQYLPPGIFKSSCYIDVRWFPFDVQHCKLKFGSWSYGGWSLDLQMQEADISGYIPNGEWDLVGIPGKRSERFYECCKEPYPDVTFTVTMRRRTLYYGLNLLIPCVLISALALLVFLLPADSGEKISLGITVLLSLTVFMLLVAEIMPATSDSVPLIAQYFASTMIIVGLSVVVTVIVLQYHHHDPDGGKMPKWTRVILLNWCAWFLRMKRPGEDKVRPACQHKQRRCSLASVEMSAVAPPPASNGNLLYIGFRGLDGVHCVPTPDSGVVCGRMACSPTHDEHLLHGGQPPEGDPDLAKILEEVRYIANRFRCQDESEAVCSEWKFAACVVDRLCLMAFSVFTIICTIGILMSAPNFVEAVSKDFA

[6] = biological target: α1β1δε mouse muscle receptors (Mus musculus, UniProt P02716+P04756+P09690+P20782); experiment: Oocyte electrophysiology, muscle receptor selectivity (Example 4); format: cell-based
Sequence of α1β1δε mouse muscle receptors (P04756 21-457): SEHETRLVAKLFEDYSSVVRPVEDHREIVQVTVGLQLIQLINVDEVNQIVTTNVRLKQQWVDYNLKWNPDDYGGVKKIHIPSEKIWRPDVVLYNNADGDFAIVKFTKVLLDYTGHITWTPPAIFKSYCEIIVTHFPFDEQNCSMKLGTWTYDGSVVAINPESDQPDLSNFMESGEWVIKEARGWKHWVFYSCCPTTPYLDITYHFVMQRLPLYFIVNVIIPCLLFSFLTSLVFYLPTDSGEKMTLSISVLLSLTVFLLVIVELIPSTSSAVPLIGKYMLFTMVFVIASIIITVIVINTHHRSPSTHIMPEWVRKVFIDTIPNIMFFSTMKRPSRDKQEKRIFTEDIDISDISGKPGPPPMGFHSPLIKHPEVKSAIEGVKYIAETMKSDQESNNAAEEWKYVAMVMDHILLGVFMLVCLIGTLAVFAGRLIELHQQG
Sequence of α1β1δε mouse muscle receptors (P09690 24-501): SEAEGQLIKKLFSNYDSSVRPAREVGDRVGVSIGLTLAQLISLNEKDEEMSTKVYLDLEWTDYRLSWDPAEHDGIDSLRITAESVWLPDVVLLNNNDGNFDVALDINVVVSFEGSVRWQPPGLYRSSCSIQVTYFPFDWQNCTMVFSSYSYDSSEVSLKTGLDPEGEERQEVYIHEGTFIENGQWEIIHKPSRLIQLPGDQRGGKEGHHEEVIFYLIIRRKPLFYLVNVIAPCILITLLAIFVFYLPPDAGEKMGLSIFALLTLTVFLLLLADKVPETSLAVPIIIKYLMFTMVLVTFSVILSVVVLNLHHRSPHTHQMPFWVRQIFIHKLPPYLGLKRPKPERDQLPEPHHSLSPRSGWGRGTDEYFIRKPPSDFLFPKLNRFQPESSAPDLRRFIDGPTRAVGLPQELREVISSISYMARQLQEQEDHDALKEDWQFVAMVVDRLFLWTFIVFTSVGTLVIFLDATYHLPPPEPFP
Sequence of α1β1δε mouse muscle receptors (P02716 25-520): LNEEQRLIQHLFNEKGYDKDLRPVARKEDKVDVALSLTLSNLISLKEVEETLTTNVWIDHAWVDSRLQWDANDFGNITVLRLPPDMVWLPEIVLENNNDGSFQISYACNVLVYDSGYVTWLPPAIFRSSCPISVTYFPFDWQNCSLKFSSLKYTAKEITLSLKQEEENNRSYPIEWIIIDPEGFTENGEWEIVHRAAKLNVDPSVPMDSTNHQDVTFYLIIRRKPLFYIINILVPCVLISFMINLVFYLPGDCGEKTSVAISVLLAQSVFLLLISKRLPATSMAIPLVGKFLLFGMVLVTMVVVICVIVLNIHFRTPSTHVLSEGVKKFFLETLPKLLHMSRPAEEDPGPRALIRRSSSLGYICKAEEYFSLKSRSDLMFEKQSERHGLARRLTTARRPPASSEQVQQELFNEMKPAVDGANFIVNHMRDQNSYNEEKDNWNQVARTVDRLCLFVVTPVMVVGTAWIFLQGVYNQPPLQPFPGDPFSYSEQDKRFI
Sequence of α1β1δε mouse muscle receptors (P20782 21-493): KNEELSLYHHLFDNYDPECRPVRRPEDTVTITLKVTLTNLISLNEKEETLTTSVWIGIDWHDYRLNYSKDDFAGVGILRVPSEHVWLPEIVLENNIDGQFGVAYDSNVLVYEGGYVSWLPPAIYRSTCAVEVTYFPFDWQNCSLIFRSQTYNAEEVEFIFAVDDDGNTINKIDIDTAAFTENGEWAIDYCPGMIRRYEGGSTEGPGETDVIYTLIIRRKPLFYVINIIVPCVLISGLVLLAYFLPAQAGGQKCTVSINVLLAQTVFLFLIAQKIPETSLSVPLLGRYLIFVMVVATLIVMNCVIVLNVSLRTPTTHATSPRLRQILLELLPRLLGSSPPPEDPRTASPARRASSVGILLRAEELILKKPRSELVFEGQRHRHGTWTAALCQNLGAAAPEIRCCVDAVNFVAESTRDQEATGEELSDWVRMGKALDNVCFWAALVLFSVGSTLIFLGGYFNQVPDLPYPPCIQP
Description: (§1) For electrophysiology, oocyte recordings were made with an oocyte amplifier (e.g., Warner Instruments, Hamden, Conn., No. OC-725C) and RC-8 recording chamber. Oocytes were placed in the recording chamber with a total volume of about 0.6 ml and perfused at room temperature by frog Ringer's solution (115 mM NaCl, 2.5 mM KCl, 10 mM HEPES pH 7.3, and 1.8 mM CaCl2) containing 1 µM atropine to inhibit potential muscarinic responses. A Mariotte flask filled with Ringer's solution was used to maintain a constant hydrostatic pressure for drug delivery and washes. Drugs were diluted in perfusion solution and loaded into a 2 ml loop at the terminus of the perfusion line. A bypass of the drug-loading loop allowed bath solution to flow continuously while the drug loop was loaded. The drug application was synchronized with data acquisition by using a 2-way electronic valve. The rate of bath solution exchange and drug application was preferably about 6 ml/min. Current electrodes were filled with a solution containing 250 mMCsCl, 250 mM CsF and 100 mM EGTA and had resistances of 0.5-2 MΩ. Voltage electrodes were filed with 3M KCl and have resistances of 1-3MΩ. Oocytes with resting membrane potentials more positive than −30 mV were not used.
(§2) Holding currents immediately before agonist application were subtracted from measurements of the peak response to agonist. […]

[7] = biological target: hSERT (serotonin transporter) (Homo sapiens, UniProt P31645); experiment: [125I]RTI-55 binding, HEK293-hSERT membranes (Example 5); conditions: [125I]RTI-55 competition
[8] = biological target: NMDA receptor subunits NR1 and NR2b (Homo sapiens, UniProt Q05586+Q13224); experiment: Oocytes coexpressing NMDA receptor subunits (Example 4); format: cell-based; conditions: 100 μM; reversible after a 5-min wash
Description: as §1, §2

Swiss-Webster mice [9] = experiment: Locomotor depression test, compound alone (Example 6); format: in vivo, mouse
Swiss-Webster mice [10] = experiment: Cocaine interaction study, locomotor activity (Example 6); format: in vivo, mouse; conditions: 10 mg/kg ip + cocaine 20 mg/kg ip
Sprague-Dawley rats [11] = experiment: Effects of mecamylamine alone at high dose: seizures and spontaneous locomotor activity (Example 2); format: in vivo, rat; conditions: 10 mg/kg s.c., 30 min
Description: Male Sprague-Dawley rats (n=96) weighing between 200 and 250 grams upon arrival were used for this study (Harlan Laboratories, Ind.). The rats were housed two per cage, allowed one week to acclimate to animal facility before testing, kept on a reverse lighting schedule (7:00-19:00 lights off), and allowed free access to food and water. Testing occurred between 10:00 a.m. and 3:00 p.m. in a dimly lit room maintained at 22° C. The experimental procedures carried out in this study were in compliance with the Guide for the Care and Use of Laboratory Animals (National Research Council, 1996) and had the prior approval of the University of South Florida Institutional Animal Care and Use Committee.
Observation of seizures and locomotor recordings were carried out in clear acrylic 41×41×30 cm test chambers inside Digiscan activity monitors (Accuscan, Inc.). Each monitor employs two arrays of infrared photocell beams (8×8 photocells, model RXYZCM-8) to detect several parameters of the rat's movement both horizontally and vertically. Data were collected in 5-min bins during testing.
All drugs were dissolved in physiological saline, and nicotine was adjusted to pH with HCl to 7.40. […] All doses are expressed as the free base of the drug. […]
Data was analyzed using a one-way analysis of variance followed by Fishers least significance test for multiple comparisons. […]

human α3β2 receptors = biological target: T4, human α3β2 receptors (Homo sapiens, UniProt P17787+P32297); experiment: Two-electrode voltage clamp, Xenopus oocytes expressing α3β2 receptors (Example 4); format: cell-based
T4 construct: expressed in transfected cells; host or cells: Xenopus laevis oocytes, cRNA injection
T4 sequence (P32297 32-505): as the sequence (P32297 32-505) above
T4 sequence (P17787 26-502): as the sequence (P17787 26-502) above

[12] = biological target: hDAT (dopamine transporter) (Homo sapiens, UniProt Q01959); experiment: [125I]RTI-55 binding, HEK293-hDAT membranes (Example 5); conditions: [125I]RTI-55 competition
[13] = 0.1 mg/kg s.c., nicotine 3.6 mg/kg
[14] = after co-application of 10 μM with ACh

For Clc1cccc(Cl)c1N=C1NCCN1 [clonidine], the “cases in which treatment is effective / success rate for motor and vocal tics” value (TS patients) is listed as 40%.
With CN[C@]1(C)[C@H]2CC[C@H](C2)C1(C)C [exo-R-mecamylamine, reference compound] the “plasma DA levels on sympathetic stimulation vs baseline” value ([1]; 2.2 Hz) was “significant increases in plasma DA levels”, the “stimulation-induced increases in plasma NE levels vs saline” value ([1]; 2.2 Hz) was “significantly less” and the “duration of seizure vs saline comparison group” value (Sprague-Dawley rats [2]; [13]) was “did not differ from their saline comparison group”. For the same molecule, the “nicotine-induced seizures (percentage of rats that seized)” value (Sprague-Dawley rats [2]) was “prevented nicotine-induced seizures in a dose-dependent manner”, the “duration and severity of seizure vs saline comparison group” value (Sprague-Dawley rats [2]; nicotine 3.6 mg/kg) was “significantly different from their saline comparison groups” and the “seizure latency vs saline control” value (Sprague-Dawley rats [2]; nicotine 3.6 mg/kg) was “significantly longer latency”. The “effectiveness of isomers compared, particularly center distance and vertical activity” value [3] was “generally more effective at lower doses”, the “stimulation-induced increases in MAP” value [4] was “completely abolished” and the “increases in heart rate (δ HR) vs saline-treated rats” value [4] was “significantly lowered the increases in heart rate”.
In the case of CN[C@@]1(C)[C@@H]2CC[C@@H](C2)C1(C)C [exo-S-mecamylamine, exo-S-N,2,3,3-tetramethyl-bicycl-o-[2.1.1]heptan-2-amine hydrochloride], the “affinity for binding site compared with cocaine” value (“affinity … compared with cocaine” for short) [5] was “lower than the affinity of cocaine”, the “voltage dependence of inhibition” value (human α3β4 receptors; 1 μM, -40 mV vs 90 mV [sic]) was “significant voltage dependence” and the “residual inhibition: control ACh response 5 min after exposure” value (shortened to “residual inhibition”) (human α3β4 receptors; 5 min wash) was “marked decrease in subsequent control response to ACh”. For the same molecule, the initial inhibition (nicotine receptors; co-application of 10 μM and ACh at control concentration) was “greater than 50%”, the “off-loading from some receptors” value (nicotine receptors; compared with exo-R-mecamylamine) was “slower than exo-R-mecamylamine” and the “voltage dependence of inhibition” value (human α4β2 receptors; 5 μM, -40 mV vs 90 mV [sic]) was “significant voltage dependence”. For the same molecule, the “residual inhibition” value (human α4β2 receptors; 5 min wash) was “greatest for β2-containing receptors”, the “time constant of recovery, compared with α3β2” value (human α4β2 receptors; [14]) was “similar” and the “stimulation-induced increases in plasma NE levels vs saline” value ([1]; 2.2 Hz) was “significantly decreased stimulation-evoked plasma NE increases”. For the same molecule, the “stimulation-induced plasma EPI responses” value ([1]; 2.2 Hz) was “significant decrease in stimulation-induced plasma EPI responses”, the “overall effectiveness on plasma CA and sympathetically-mediated cardiovascular responses” value ([1]; of the three forms) was “most effective in reducing plasma CA” and the “voltage dependence of inhibition” value (human α7 receptors; 10 μM, -40 mV vs 90 mV [sic]) was “significantly different responses”. The “residual inhibition” value (human α7 receptors; 5 min wash) was “least for α7 receptors”, the “IC50 rank among receptor subtypes” value (human α7 receptors; control ACh 300 μM, -50 mV) was “least potent at inhibiting α7 receptors” and the “inhibition of muscle receptors after wash” value ([6]; 5-min wash) was “fully reversed”. The “effect on muscle receptors” value ([6]; control ACh 3 μM) was “very little effect”, the “duration of seizure vs saline comparison group” value (Sprague-Dawley rats [2]; [13]) was “significantly different from their saline comparison groups” and the “seizure latency vs saline comparison group” value (Sprague-Dawley rats [2]; [13]) was “significantly longer seizure latency”. For the same molecule, the “nicotine-induced seizures (percentage of rats that seized)” value (Sprague-Dawley rats [2]) was “prevented nicotine-induced seizures in a dose-dependent manner”, the “duration and severity of seizure vs saline comparison group” value (Sprague-Dawley rats [2]; nicotine 3.6 mg/kg) was “significantly different from their saline comparison groups” and the “seizure latency vs saline control” value (Sprague-Dawley rats [2]; nicotine 3.6 mg/kg) was “significantly longer latency”. The “number of rats with nicotine-seizures compared with exo-R-mecamylamine” value (Sprague-Dawley rats [2]; lowest dose 0.1 mg/kg) was “fewer rats had nicotine-seizures”, the “affinity … compared with cocaine” value [7] was “lower than the affinity of cocaine” and the “inhibition of response to 10 μM glutamate+10 μM glycine” value [8] was “transient inhibition”. For the same molecule, the “effect on locomotor activity in the last 30 minutes of testing” value (Swiss-Webster mice [9]; 1 and 3 mg/kg ip) was “Stimulant effects”, the “dose producing one half of the maximal depressant activity” value (Swiss-Webster mice [9]; ip, 20 min before testing, maximal depression = 0 counts in 30 minutes) was 8.5 mg/kg and the “stimulation-induced increases in MAP” value [4] was “completely abolished”. The “increases in heart rate (δ HR) vs saline-treated rats” value [4] was “significantly lowered the increases in heart rate”, the “potency rank, stimulation-induced pressor responses” value ([4]; of the three forms) was “most potent” and the “locomotion at 30 minutes vs saline/cocaine” value (Swiss-Webster mice [10]) was “significantly different from the result of cocaine alone”. For the same molecule, the “spontaneous locomotor activity, total distance traveled” value (Sprague-Dawley rats [11]) was “signigicantly less locomotor depressant effects”, the “voltage dependence of inhibition” value (human α3β2 receptors; 5 μM, -40 mV vs 90 mV [sic]) was “significantly different responses” and the “residual inhibition” value (human α3β2 receptors; 5 min wash) was “greatest for β2-containing receptors”. For the same molecule, the “time constant of recovery” value (human α3β2 receptors; [14]) was “about 33 min” and the “affinity … compared with cocaine” value [12] was “lower than the affinity of cocaine”.
For O=C(CCCN1CCC(O)(c2ccc(Cl)cc2)CC1)c1ccc(F)cc1 [haloperidol], the “cases in which treatment is effective / success rate for motor and vocal tics” value (TS patients) is given as “about 70%”.
